Measurements: ChEMBL document CHEMBL1201862, “PubChem BioAssay data set” (2004)
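Growth conditions: 96-well plates. Treatment: test compound, 48 hours, 5 concentrations. Analysis: linear interpolation between bracketing concentrations; unreached endpoints set to highest concentration. Abbreviation: GI50, concentration required for 50% inhibition of growth.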 Calls of active or inactive are those of the source. No stated cut-off is given here; in the data, active = GI50 up to about 1.1 µM and inactive = higher.

Tests used:
Experiment in all cases: NCI tumour cell line growth inhibition, 48 h
TK-10 = tested on: TK-10
HCC 2998 = tested on: HCC 2998
SF-268 = tested on: SF-268
A498 = tested on: A498
RPMI-8226 = tested on: RPMI-8226
K562 = tested on: K562
SK-MEL-2 = tested on: SK-MEL-2
HL-60 = tested on: HL-60
NCI-H522 = tested on: NCI-H522
MCF7 = tested on: MCF7
HT-29 = tested on: HT-29
M14 = tested on: M14
HOP-92 = tested on: HOP-92
HOP-62 = tested on: HOP-62
MOLT-4 = tested on: MOLT-4
Hs-578T = tested on: Hs-578T
U-251 = tested on: U-251
SF-539 = tested on: SF-539
SF-295 = tested on: SF-295
A549 = tested on: A549
UO-31 = tested on: UO-31
SNB-19 = tested on: SNB-19
MDA-MB-435 = tested on: MDA-MB-435
HCT-15 = tested on: HCT-15
UACC-62 = tested on: UACC-62
NCI/ADR-RES = tested on: NCI/ADR-RES
EKVX = tested on: EKVX
SR = tested on: SR
SK-OV-3 = tested on: SK-OV-3
DU-145 = tested on: DU-145
COLO 205 = tested on: COLO 205
OVCAR-8 = tested on: OVCAR-8
Malme-3M = tested on: Malme-3M
MDA-N = tested on: MDA-N
OVCAR-5 = tested on: OVCAR-5
CCRF-CEM = tested on: CCRF-CEM
NCI-H23 = tested on: NCI-H23
SW-620 = tested on: SW-620
KM12 = tested on: KM12
SK-MEL-5 = tested on: SK-MEL-5
IGROV-1 = tested on: IGROV-1
NCI-H460 = tested on: NCI-H460
SK-MEL-28 = tested on: SK-MEL-28
786-0 = tested on: 786-0
BT-549 = tested on: BT-549
HCT-116 = tested on: HCT-116
MDA-MB-231 = tested on: MDA-MB-231
OVCAR-3 = tested on: OVCAR-3
CAKI-1 = tested on: CAKI-1
PC-3 = tested on: PC-3
LOX IMVI = tested on: LOX IMVI
UACC-257 = tested on: UACC-257
ACHN = tested on: ACHN
SNB-75 = tested on: SNB-75
OVCAR-4 = tested on: OVCAR-4
SN12C = tested on: SN12C
NCI-H226 = tested on: NCI-H226
RXF 393 = tested on: RXF 393

Cc1c(-c2ccccc2)n(C)c2cn[nH]c(=O)c12
GI50 (TK-10): 41400 nM (inactive) | GI50 (HCC 2998): 27800 nM (inactive) | GI50 (SF-268): 37500 nM (inactive) | GI50 (A498): 30400 nM (inactive) | GI50 (RPMI-8226): 38100 nM (inactive) | GI50 (K562): 47300 nM (inactive) | GI50 (SK-MEL-2): 22700 nM (inactive) | GI50 (HL-60): 36500 nM (inactive) | GI50 (NCI-H522): > 100000 nM (inactive) | GI50 (MCF7): 31500 nM (inactive) | GI50 (HT-29): 26100 nM (inactive) | GI50 (M14): 42500 nM (inactive) | GI50 (HOP-92): 81100 nM (inactive) | GI50 (HOP-62): 30000 nM (inactive) | GI50 (MOLT-4): 32700 nM (inactive) | GI50 (Hs-578T): 41200 nM (inactive) | GI50 (U-251): 32300 nM (inactive) | GI50 (SF-539): 45000 nM (inactive) | GI50 (SF-295): 25200 nM (inactive) | GI50 (A549): 44800 nM (inactive) | GI50 (UO-31): 44100 nM (inactive) | GI50 (SNB-19): > 100000 nM (inactive) | GI50 (MDA-MB-435): 33100 nM (inactive) | GI50 (HCT-15): 36600 nM | GI50 (UACC-62): 34900 nM (inactive) | GI50 (NCI/ADR-RES): 26700 nM (inactive) | GI50 (EKVX): 18100 nM (inactive) | GI50 (SR): 27000 nM (inactive) | GI50 (SK-OV-3): 27100 nM (inactive) | GI50 (DU-145): 67800 nM (inactive) | GI50 (COLO 205): 17100 nM (inactive) | GI50 (OVCAR-8): 39200 nM (inactive) | GI50 (Malme-3M): 42600 nM (inactive) | GI50 (MDA-N): 33500 nM (inactive) | GI50 (OVCAR-5): 52200 nM (inactive) | GI50 (CCRF-CEM): 40200 nM (inactive) | GI50 (NCI-H23): 38400 nM (inactive) | GI50 (SW-620): 47100 nM (inactive) | GI50 (KM12): 37500 nM (inactive) | GI50 (SK-MEL-5): 17300 nM (inactive) | GI50 (IGROV-1): 70000 nM (inactive) | GI50 (NCI-H460): 63800 nM (inactive) | GI50 (SK-MEL-28): 47300 nM (inactive) | GI50 (786-0): 23300 nM (inactive) | GI50 (BT-549): 32300 nM (inactive) | GI50 (HCT-116): 35900 nM (inactive) | GI50 (MDA-MB-231): 17900 nM (inactive) | GI50 (OVCAR-3): 19700 nM (inactive) | GI50 (CAKI-1): 49500 nM (inactive) | GI50 (PC-3): 19700 nM (inactive) | GI50 (LOX IMVI): 18700 nM (inactive) | GI50 (UACC-257): 45500 nM (inactive) | GI50 (ACHN): 44300 nM (inactive)

COc1cc2c3c(c4ccc(OC)c(OC)c4c2cc1OC)CN1CCC[C@@H]1C3 [TYLOCREBRINE]
GI50 (TK-10): 57.4 nM (active) | GI50 (HCC 2998): 53.3 nM (active) | GI50 (SF-268): < 17.1 nM (active) | GI50 (A498): < 10 nM (active) | GI50 (RPMI-8226): 32.5 nM (active) | GI50 (SNB-75): < 10 nM (active) | GI50 (K562): 19.1 nM (active) | GI50 (SK-MEL-2): < 15.3 nM (active) | GI50 (OVCAR-4): 30.1 nM (active) | GI50 (HL-60): 34.3 nM (active) | GI50 (NCI-H522): 31.3 nM (active) | GI50 (MCF7): 54.8 nM (active) | GI50 (HT-29): 20.8 nM (active) | GI50 (M14): 33.3 nM (active) | GI50 (HOP-92): < 24.6 nM (active) | GI50 (HOP-62): 31.6 nM (active) | GI50 (MOLT-4): 43 nM (active) | GI50 (Hs-578T): 18.2 nM (active) | GI50 (U-251): 19 nM (active) | GI50 (SF-539): 19.1 nM (active) | GI50 (SF-295): 39.5 nM (active) | GI50 (A549): 25.1 nM (active) | GI50 (UO-31): < 10 nM (active) | GI50 (SNB-19): 16.3 nM (active) | GI50 (MDA-MB-435): 36.5 nM (active) | GI50 (HCT-15): 31.2 nM | GI50 (SN12C): 56.4 nM (active) | GI50 (UACC-62): < 10 nM (active) | GI50 (NCI/ADR-RES): < 16.6 nM (active) | GI50 (EKVX): 17.2 nM (active) | GI50 (SR): 36.5 nM (active) | GI50 (SK-OV-3): 124 nM (active) | GI50 (DU-145): 24.8 nM (active) | GI50 (COLO 205): 22.8 nM (active) | GI50 (OVCAR-8): < 14.6 nM (active) | GI50 (Malme-3M): 24.8 nM (active) | GI50 (MDA-N): 62.2 nM (active) | GI50 (OVCAR-5): 74.5 nM (active) | GI50 (CCRF-CEM): 26.9 nM (active) | GI50 (NCI-H23): 16 nM (active) | GI50 (SW-620): 58.6 nM (active) | GI50 (KM12): 42.8 nM (active) | GI50 (NCI-H226): < 17.6 nM (active) | GI50 (SK-MEL-5): 29.2 nM (active) | GI50 (IGROV-1): 40.7 nM (active) | GI50 (NCI-H460): 39.2 nM (active) | GI50 (SK-MEL-28): 30.7 nM (active) | GI50 (786-0): < 17.3 nM (active) | GI50 (BT-549): 91.4 nM (active) | GI50 (HCT-116): 26.6 nM (active) | GI50 (MDA-MB-231): 20.4 nM (active) | GI50 (OVCAR-3): 107 nM (active) | GI50 (RXF 393): < 15.5 nM (active) | GI50 (CAKI-1): < 21.6 nM (active) | GI50 (PC-3): 58.2 nM (active) | GI50 (LOX IMVI): 24.9 nM (active) | GI50 (UACC-257): 61.2 nM (active) | GI50 (ACHN): 44.4 nM (active)
